The data set can be described thus: Relaxivity measurement, 1.0 T MRI scanner. As to conditions: room temperature. It is filed as physicochemical. The procedure:
A relaxivity study was performed by evaluating the longitudinal relaxation time T1 of HP—Au—Gd nanoparticles at different Gd concentrations at room temperature by using a 1.0 T-MRI scanner (ICON, Bruker Biospin, Ettlingen, Germany). The commercially available gadolinium contrast agent (Gadopentetic acid or Gd-DTPA) was used as the positive control. The contrast agents were initially placed into syringes and set in the center of the volume coil. The sample temperature was maintained at room temperature. By using the MRI scanner, horizontal single-slice T1-weighted MR images were acquired (spin echo, TR/TE=400/10 ms, slice thickness=2.0 mm, matrix=256×256, field of view (FOV)=38.4×38.4 mm, number of averages (NA)=10, number of slices=1). Horizontal single-slice inversion-recovery MRI was done to calculate the T1 and r1 by using rapid acquisition with relaxation enhancement (RARE) acquisition (TR=20,000 ms, TE=17 ms, inversion time=45, 100, 200, 400, 800, 1600, 3200, 6400, 8000, 10000, 12000 ms, matrix size=64×64, FOV=38.4×38.4 mm, slice thickness=2.0 mm, RARE factor=4, and NA=1). Then, the r1 relaxivities were calculated by using the following equation: r1=(1/T1-1/T1(0))/[Gd] where [Gd] is the concentration of Gd, and 1/T1(0) and 1/T1 are the longitudinal relaxation rate without and with paramagnetic species, respectively.

For `CNC[C@H](O)[C@@H](O)[C@H](O)[C@H](O)CO.CNC[C@H](O)[C@@H](O)[C@H](O)[C@H](O)CO.O=C([O-])CN(CCN(CC(=O)[O-])CC(=O)O)CCN(CC(=O)[O-])CC(=O)O.[Gd+3]` [Gd-DTPA, Gadopentetic acid], the r1 relaxivity turned out to be 3.26 mM⁻¹ s⁻¹.

These data come from patent publication US20230090223A1, “NANOPARTICLES FOR USE IN THE TREATMENT AND DIAGNOSIS OF CNS DISORDERS” (priority 2020, published 2023).
